Laboratory results from patent publication US20260224714A1, “CYCLING LYSOSOMAL TARGETING ANTIBODY CONJUGATES” (Lycia Therapeutics, Inc., priority 2023, published 2026).

Assays:
Assay type in all cases: cell-based
[1] = tested on: Alexa Fluor647 labelled human IgE; assay: Uptake assay: internalization of Alexa Fluor 647 labelled IgE in wild type HepG2 cells (Example 6); conditions: equimolar conjugate and AF647 IgE, 2 hours, median cellular AF647 intensity by flow cytometry, normalized to unconjugated parent protein
Procedure: (§1) The following experiments were performed with HepG2 hepatocellular carcinoma cells, grown in Eagle's Minimal Essential Media (EMEM) supplemented with 10% FBS and penicillin/streptomycin.
(§2) HepG2 cells (25,000) were plated in 96-well plates 48 hours before the experiment was performed. On the day of the experiment, indicated the conjugate was mixed with an equimolar stock of Alexa Fluor647 labelled human IgE (Enzo Life Sciences, BPD-DIA-HE 1) in fresh EMEM as a 600 nM stock. The precomplexed conjugate:IgE mixture was incubated at room temperature for 30 minutes. During the precomplexing step, media from HepG2 was removed, and 40 ul of EMEM with 1/100 Fc Receptor Blocking Solution (Biolegend Human TruStain FcX, 422302) was added. Cells incubated in the receptor blocking solution for 10 minutes while making serial dilutions (1:3) of conjugate:IgE stock solution in EMEM. 40 ul of the conjugate:IgE mixture in EMEM was then added to cells (six dilutions, with final concentrations ranging from 300 nM to 1.23 nM) for 2 hours before washing with DPBS and detaching with 0.25% Trypsin/EDTA. Cells were pelleted in 96-well conical bottom plates, washed once with FACS Buffer with BSA (Rockland Immunochemicals), and resuspended in FACS Buffer with BSA. Uptake of fluorescently labelled IgE was measured by analyzing median cellular AF647 intensity by flow cytometry.
(§3) Cells were incubated with equimolar ratio of conjugate and AF647 IgE at indicated concentrations, with data normalized to unconjugated parent protein (Oma S35HWY57H-LC).

[2] = tested on: Alexa Fluor647 labelled human IgE; assay: Uptake assay: internalization of Alexa Fluor 647 labelled IgE in ASGPR1/2 KO HepG2 cells (Example 6); conditions: equimolar conjugate and AF647 IgE, normalized to unconjugated parent protein
Procedure: as §1, §2, §3

[3] = tested on: LysoLight-labelled human IgE; assay: Lysosomal degradation of LysoLight-labelled IgE in HepG2 cells, live cell imaging (Example 7); conditions: equimolar conjugate:LysoLight IgE, area under the curve of deep red fluorescence over three days, normalized to unconjugated parent protein
Procedure: as §1
HepG2 cells (15,000) were plated in 96-well plates 72 hours before performing the experiment. On the day of the experiment, indicated the conjugate was diluted in fresh EMEM and mixed with an equimolar stock of LysoLight-labelled human IgE (Enzo Life Sciences, BPD-DIA-HE1), at 200 nM of each compound. The precomplexed conjugate:IgE mixture was incubated at room temperature for 30 minutes. During the precomplexing step, media from HepG2 was removed, and 40 ul of EMEM with 1/100 Fc Receptor Blocking Solution (Biolegend Human TruStain FcX, 422302) was added. Cells incubated in the receptor blocking solution for 10 minutes while making serial dilutions (1:3) of conjugate:IgE stock solution in EMEM. 40 ul of the conjugate:IgE mixture in EMEM was then added to cells (five dilutions, with final concentrations ranging from 100 nM to 1.23 nM). Cells were placed in an IncuCyte Live-Cell Analysis System (Sartorius) for long term live cell imaging analysis (10× magnification, 3 images per well). One hour after addition of compound, image acquisition to measure red fluorescence from the LysoLight probe was started, with further Images collected every hour for 72 hours. Fluorescence of the LysoLight probe only occurs when cleaved by lysosomal cathepsin proteases, confirming lysosomal delivery and degradation of target. After 72 hours, mean red fluorescence was measured for each time point, and the area under the curve of fluorescence overtime was used to measure total degradation over the 3-day time period.

[4] = tested on: HepG2 cells; assay: Externalization of conjugates from a cell following internalization (cycling), high-throughput format (Example 11); conditions: 50 nM conjugate 1 hour, stringent washes, Alexa Fluor 647-labelled a-human IgG 1 hour, FACS, normalized to unconjugated parent protein, average of two replicate wells
Procedure: as §1
The method was also adapted to a high-throughput format. In this assay, 25,000 HepG2 cells were plated in 96-well plates 48 hours before performing the experiment. The day of the experiment, cells were incubated with conjugate at indicated concentrations for 1 hour. Cells were then placed on ice to prevent trafficking/recycling during wash steps, and washed once with DPBS, once with sodium acetate buffer (20 mM, 150 mM NaCl, pH 5.2), once with Earle's Balanced Salt Solution (EBSS) adjusted to pH 2.5, and once again with DPBS, to remove conjugate from media and cell surface. Afterwards, 100 ul of prewarmed (to 37° C.) EMEM with 1 μg/ml of human a-IgG antibody conjugated to Alexa Fluor647 fluorophores was added to cells for 1 hour before washing with DPBS and detaching with 0.25% Trypsin/EDTA. Cells were pelleted in 96-well conical bottom plates, washed once with FACS Buffer with BSA (Rockland Immunochemicals), resuspended FACS Buffer with BSA and median AF647 intensity was analyzed by flow cytometry. The amount of conjugate capable of cycling to the cell surface (being externalized from the cell) and binding to the Alexa Fluor647 labelled α-IgG was measured by analyzing median cellular 647 fluorescence intensity by flow cytometry. […]. Reported values are the average of the values of two replicate wells.

[5] = tested on: human IgE; assay: Degradation of initial and subsequent dose of target in HepG2 cells (Example 12, Table 30); conditions: normalized to unconjugated; for Normalized Fluorescence Post Wash Median Green: after wash, probe-conjugated IgE added for 4 hours, subsequent dose of target; for Normalized Fluorescence Precomplex Median Deep Red: precomplexed equimolar conjugate:IgE (cathepsin-cleavable quenched fluorescent probe) added for 2 hours, initial dose of target
Procedure: as §1
HepG2 cells (25,000) were plated in 96-well plates 48 hours before performing the experiment. On the day of the experiment, indicated conjugate was diluted in fresh EMEM as a 2× stock, and mixed with an equimolar stock of human IgE (Enzo Life Sciences, BPD-DIA-HE 1) conjugated to a cathepsin-cleavable quenched fluorescent probe. The precomplexed conjugate:IgE mixture was incubated at 37 degrees Celsius for 30 minutes. Media from HepG2 was removed, and conjugate:IgE mixture in EMEM was added to cells for 2 hours. Cells were then placed on ice to prevent trafficking/recycling during wash steps, and washed once with DPBS, once with sodium acetate buffer (20 mM, 150 mM NaCl, pH 5.2), once with Earle's Balanced Salt Solution (EBSS) adjusted to pH 2.5, and once again with DPBS, to remove conjugate from media and cell surface. Afterwards, 100 ul of prewarmed (to 37 degrees Celsius) EMEM with cathepsin-cleavable quenched fluorescent probe-conjugated IgE was added to cells for 4 hours before washing with DPBS and detaching with 0.25% Trypsin/EDTA. Cells were pelleted in 96-well conical bottom plates, washed once with FACS Buffer with BSA (Rockland Immunochemicals), resuspended FACS Buffer with BSA and median 488 and 647 intensity was analyzed by flow cytometry. Delivery of labelled IgE to the lysosome and subsequent cleavage of initial precomplexed IgE was measured by analyzing median cellular 647 intensity, while cleavage of the post wash addition of IgE, which should only be degraded by recycling conjugates which released the first round of precomplexed IgE, was analyzed by median cellular 488 intensity. HepG2 cells were treated with human IgE (Enzo Life Sciences, BPD-DIA-HE1) conjugated to a cathepsin-cleavable quenched deep red (647) fluorescent probe precomplexed to conjugate fortwo hours, then washed, and fresh media with IgE conjugated to a green (488) cathepsin-cleavable fluorescent probe was then added without conjugate. […] Fluorescence values were measured by FACS and normalized to unconjugated parent protein. Reported values are the average of the values of two replicate wells.

[6] = tested on: recombinant IgE; assay: Degradation of super-stoichiometric levels of target in HepG2 cells (Example 13, Table 31); conditions: 1 nM conjugate and 25 nM IgE for three days, (A-B)/C IgE depleted relative to conjugate, average of two replicate wells
Procedure: as §1
For evaluation of compounds in a high throughput format, 25,000 HepG2 cells were plated in a 96-well plate. The following day, 50 ul of 1 nM conjugate and 25 nM recombinant IgE in EMEM were added to the cells. 50 ul of the initial stock of conjugate:IgE was saved to quantify for an initial time point. Three days later, the media was collected from cells, and both initial and 72 hour time points were quantified for IgE concentration using the MSD assay.
HepG2 cells were incubated in media containing 1 nM conjugate and 25 nM IgE for three days. Concentrations of IgE at beginning and end of experiment were quantified by ELISA-based assay. Molar equivalents of IgE depleted relative to conjugate added are shown, calculated as (A-B)/C, where A is the initial concentration of IgE, B is the concentration of IgE at day three, and C is the concentration of conjugate. Reported values are the average of the values of two replicate wells.

SMILES | Normalized Fluorescence 3.7 nM WT [1] | Normalized Fluorescence 100 nM WT [1] | Normalized Fluorescence 100 nM ASGPR KO [2] | Normalized Fluorescence 3.7 nM [3] | Normalized Fluorescence 100 nM [3] | Normalized Fluorescence [4] | Normalized Fluorescence Post Wash Median Green [5] | Normalized Fluorescence Precomplex Median Deep Red [5] | Average Degradation (Molar equivalents) [6]
O=C(CCOCCOCCOCCNS(=O)(=O)c1ccc(N2C(=O)C=CC2=O)cc1)NC(CCCNC(=O)NCCOCCOCCOCc1cn([C@H]2[C@H]3OC[C@](CO)(O3)[C@H](O)[C@@H]2O)nn1)(CCCNC(=O)NCCOCCOCCOCc1cn([C@H]2[C@H]3OC[C@](CO)(O3)[C@H](O)[C@@H]2O)nn1)CCCNC(=O)NCCOCCOCCOCc1cn([C@H]2[C@H]3OC[C@](CO)(O3)[C@H](O)[C@@H]2O)nn1 [Compound 2328] | 29.7 | 146.5 | 1.1 | 4.4 | 2.5 | 15.1 | 1.8 | 2.4 | −0.3 Molar equivalents
CN1CCN(C[C@H]2OC[C@H](Nc3nc(OCCOCCOCCNC(=O)NCCCC(CCCNC(=O)NCCOCCOCCOc4cc(C(F)(F)F)nc(N[C@H]5CO[C@H](CN6CCN(C)CC6)[C@H](O)[C@@H]5O)n4)(CCCNC(=O)NCCOCCOCCOc4cc(C(F)(F)F)nc(N[C@H]5CO[C@H](CN6CCN(C)CC6)[C@H](O)[C@@H]5O)n4)NC(=O)CCOCCOCCOCCNS(=O)(=O)c4ccc(N5C(=O)C=CC5=O)cc4)cc(C(F)(F)F)n3)[C@@H](O)[C@H]2O)CC1 [Compound 2312] | 64.9 | 242.9 | 1.0 | 11.1 | 4.2 | 44.5 | 3.0 | 3.5 | 4.1 Molar equivalents
CCC[C@H]1O[C@H](COC)[C@H](O)[C@H](O)[C@H]1Nc1nccc(OCCOCCOCCNC(=O)NCCCC(CCCNC(=O)NCCOCCOCCOc2ccnc(N[C@@H]3[C@@H](O)[C@@H](O)[C@@H](COC)O[C@@H]3CCC)n2)(CCCNC(=O)NCCOCCOCCOc2ccnc(N[C@@H]3[C@@H](O)[C@@H](O)[C@@H](COC)O[C@@H]3CCC)n2)NC(=O)CCOCCOCCOCCNS(=O)(=O)c2ccc(N3C(=O)C=CC3=O)cc2)n1 [Compound 2326] | 89.7 | 287.9 | 1.1 | 17.2 | 3.7 | 57.7 | 4.1 | 4.1 | 9.0 Molar equivalents
CC(=O)N[C@@H]1[C@@H](O)[C@@H](O)[C@@H](CO)O[C@@H]1CCCOCCOCCNC(=O)NCCCC(CCCNC(=O)NCCOCCOCCC[C@H]1O[C@H](CO)[C@H](O)[C@H](O)[C@H]1NC(C)=O)(CCCNC(=O)NCCOCCOCCC[C@H]1O[C@H](CO)[C@H](O)[C@H](O)[C@H]1NC(C)=O)NC(=O)NCCOCCOCCOCCN(C)C(=O)CBr [Compound 2316] | 68.4 | 314.3 | 1.1 | 13.4 | 3.7 | 45.7 | 3.5 | 3.8 | 5.7 Molar equivalents
CC(CCCNC(=O)NCCOCCOCCOCC(F)(F)c1cncc(N[C@H]2CO[C@H](CO)[C@H](O)[C@@H]2O)n1)(CCCNC(=O)NCCOCCOCCOCC(F)(F)c1cncc(N[C@H]2CO[C@H](CO)[C@H](O)[C@@H]2O)n1)NC(=O)CCOCCOCCOCCNS(=O)(=O)c1ccc(N2C(=O)C=CC2=O)cc1 [Compound 2304] | 150.3 | 292.5 | 1.0 | 12.7 | 4.0 | 82.2 | 4.1 | 3.9 | 8.8 Molar equivalents
